According to patent publication US12630785B2, “Liquid fabric care compositions comprising capsules” (The Procter & Gamble Company, priority 2020, dated 2026):

Tests used:
[1] = Capsule perfume leakage in liquid fabric enhancer (LFE), headspace SPME GC/MS; format: physicochemical
Method: The testing of capsule leakage in liquid compositions (e.g., liquid fabric enhancer/“LFE” compositions and/or heavy-duty liquid/“HDL” detergents) is performed as follows. […] The 1 gram aliquot in the 7 ml vial is then mixed on a stirring plate for 24 h at 500 rpm, thereby ensuring that the capsules are broken by the grinding action of the stir bar against the bottom of the 7 ml vial. Optical microscopy can be used to verify that no more intact capsules remain. In case such capsules are found, the step is to repeated for an additional 24 h, or until all or almost all capsules are broken. Then, the formulation containing broken capsules is introduced into GC vials in a similar manner as for step (a). This yields total oil samples. It is to be noted that the capsule sample and the total oil sample are not analyzed on the same day, as there is a need to prepare the total oil sample after the capsule sample has been removed from storage. […] The perfume oil composition formulated herein is representative of the perfume oil composition that is present in the slurry. Then the free oil formulation is introduced into GC vials in a similar manner as for step (a). This yields reference samples, which must be used when analyzing both the capsule sample and the total oil sample. […] Two headspace vials are prepared for each sample. The sealed headspace vials are then allowed to equilibrate. Samples reach equilibrium after 3 hours at room temperature, but can be left to sit longer without detriment or change to the results, up until 24 hours after sealing the headspace vial. After equilibrating, the samples are analyzed by GC/MS. […] The perfume composition is analyzed by fast GC/MS in full scan mode. Ion extraction of the specific mass for each component is obtained. The leakage is calculated as follows, separately for the capsule sample and total oil sample, where “Area” denotes the area under the chromatogram peak corresponding to the PRM of interest: Once calculated for all PRMs for both the total oil sample and the capsule sample, the corrected PRM leakage can be calculated using the following formula: Once the corrected PRM leakage has been calculated for all PRMs, the Average leakage can be found by taking the arithmetic mean of each corrected PRM leakage. […] The resulting products are stored for one week at 35° C. At the end of the storage period, samples of each product composition are analyzed for perfume leakage out of the capsule using headspace analysis. The data is reported as a percentage, determined by comparing the amount of the individual perfume raw materials found in the headspace to the amount originally provided to the capsules.

[2] = Capsule perfume leakage in heavy-duty liquid (HDL) detergent, headspace SPME GC/MS; format: physicochemical
Method: The testing of capsule leakage in liquid compositions (e.g., liquid fabric enhancer/“LFE” compositions and/or heavy-duty liquid/“HDL” detergents) is performed as follows. […] The 1 gram aliquot in the 7 ml vial is then mixed on a stirring plate for 24 h at 500 rpm, thereby ensuring that the capsules are broken by the grinding action of the stir bar against the bottom of the 7 ml vial. Optical microscopy can be used to verify that no more intact capsules remain. In case such capsules are found, the step is to repeated for an additional 24 h, or until all or almost all capsules are broken. Then, the formulation containing broken capsules is introduced into GC vials in a similar manner as for step (a). This yields total oil samples. It is to be noted that the capsule sample and the total oil sample are not analyzed on the same day, as there is a need to prepare the total oil sample after the capsule sample has been removed from storage. […] The perfume oil composition formulated herein is representative of the perfume oil composition that is present in the slurry. Then the free oil formulation is introduced into GC vials in a similar manner as for step (a). This yields reference samples, which must be used when analyzing both the capsule sample and the total oil sample. […] Two headspace vials are prepared for each sample. The sealed headspace vials are then allowed to equilibrate. […] After equilibrating, the samples are analyzed by GC/MS. […] The perfume composition is analyzed by fast GC/MS in full scan mode. Ion extraction of the specific mass for each component is obtained. The leakage is calculated as follows, separately for the capsule sample and total oil sample, where “Area” denotes the area under the chromatogram peak corresponding to the PRM of interest: Once calculated for all PRMs for both the total oil sample and the capsule sample, the corrected PRM leakage can be calculated using the following formula: Once the corrected PRM leakage has been calculated for all PRMs, the Average leakage can be found by taking the arithmetic mean of each corrected PRM leakage. […] The resulting products are stored for one week at 35° C. At the end of the storage period, samples of each product composition are analyzed for perfume leakage out of the capsule using headspace analysis. The data is reported as a percentage, determined by comparing the amount of the individual perfume raw materials found in the headspace to the amount originally provided to the capsules.

[3] = PRM of Perfume 1 out of Comparative Example 4-1 capsules (polyacrylate shell), LFE Composition 1, 0.25 wt % perfume
[4] = PRM of Perfume 1 out of Comparative Example 6-1 capsules (no second shell component), LFE Composition 1
[5] = PRM of Perfume 1 out of Comparative Example 10-1 capsules (per EP2500087B1), LFE Composition 1
[6] = PRM of Perfume 1 out of Comparative Example 10-2 capsules (per WO2010013250A2, with IPM), LFE Composition 1
[7] = PRM of Perfume 1 out of Example 2, Sample A capsules, LFE Composition 1 (Ester Quat 1)
[8] = PRM of Perfume 1 out of Example 2, Sample A capsules, LFE Composition 2 (Ester Quat 2)
[9] = PRM of Perfume 1 out of Example 2, Sample A capsules, LFE Composition 3 (Ester Quat 3)
[10] = PRM of Perfume 1 out of Example 4-1 capsules (silica shell), LFE Composition 1, 0.25 wt % perfume
[11] = PRM of Perfume 1 out of Example 6-1 capsules (w/ second shell component), LFE Composition 1
[12] = PRM of Perfume 1 out of Example 10-1 capsules (Sample F, Perfume 1/IPM 40/60), LFE Composition 1
[13] = PRM of Perfume 1 out of Example 10-2 capsules (Sample A), LFE Composition 1
[14] = PRM of Perfume 3 out of Capsule Sample D, LFE Composition 1
[15] = PRM of Perfume 1 out of Comparative Example 5-1 capsules (polyacrylate shell)
[16] = PRM of Perfume 1 out of Comparative example 5-2 capsules (per EP2500087B1)
[17] = PRM of Perfume 1 out of Comparative example 5-3 capsules (per WO2010013250A2)
[18] = PRM of Perfume 1 out of Example 5-1 capsules (silica shell)
[19] = PRM of Perfume 2 out of Capsule Sample C, LFE Composition 1

CC(=O)O[C@@H]1C[C@H]2CC[C@]1(C)C2(C)C (racemic) [iso-Bornyl acetate]
Leakage (as %) after 1 week at 35° C. [1, 3]: 4%
Leakage (as %) after 1 week at 35° C. [1, 4]: 5%
Leakage (as %) after 1 week at 35° C. [1, 5]: 89%
Leakage (as %) after 1 week at 35° C. [1, 6]: 92%
Leakage (as %) after 1 week at 35° C. [1, 7]: 1.6%
Leakage (as %) after 1 week at 35° C. [1, 8]: 0.8%
Leakage (as %) after 1 week at 35° C. [1, 9]: 1.0%
Leakage (as %) after 1 week at 35° C. [1, 10]: 8%
Leakage (as %) after 1 week at 35° C. [1, 11]: 9%
Leakage (as %) after 1 week at 35° C. [1, 12]: 19%
Leakage (as %) after 1 week at 35° C. [1, 13]: 9%
Leakage (as %) after 1 week at 35° C. [1, 14]: 8%
Leakage (as %) after 1 week at 35° C. [2, 15]: 1%
Leakage (as %) after 1 week at 35° C. [2, 16]: 105%
Leakage (as %) after 1 week at 35° C. [2, 17]: 102%
Leakage (as %) after 1 week at 35° C. [2, 18]: 31%

CC=CC(=O)C1C(C)C=CCC1(C)C (centres unmarked) [1-(2,6,6-trimethyl-1-cyclohex-3-enyl)but-2-en-1-one]
Leakage (as %) after 1 week at 35° C. [1, 19]: 4%
Leakage (as %) after 1 week at 35° C. [1, 14]: 5%

C=CCCC(=O)C1=CCCC(C)(C)C1 [1-(5,5-dimethyl-1-cyclohexenyl)pent-4-en-1-one]
Leakage (as %) after 1 week at 35° C. [1, 19]: 2%
Leakage (as %) after 1 week at 35° C. [1, 14]: 2%

CC1=CC(C)C(C=O)CC1 (centres unmarked) [2,4-dimethylcyclohex-3-ene-1-carbaldehyde]
Leakage (as %) after 1 week at 35° C. [1, 3]: 31%
Leakage (as %) after 1 week at 35° C. [1, 4]: 94%
Leakage (as %) after 1 week at 35° C. [1, 5]: 94%
Leakage (as %) after 1 week at 35° C. [1, 6]: 96%
Leakage (as %) after 1 week at 35° C. [1, 7]: 2.1%
Leakage (as %) after 1 week at 35° C. [1, 8]: 1.1%
Leakage (as %) after 1 week at 35° C. [1, 9]: 1.6%
Leakage (as %) after 1 week at 35° C. [1, 10]: 7%
Leakage (as %) after 1 week at 35° C. [1, 11]: 8%
Leakage (as %) after 1 week at 35° C. [1, 12]: 22%
Leakage (as %) after 1 week at 35° C. [1, 13]: 8%
Leakage (as %) after 1 week at 35° C. [1, 19]: 12%
Leakage (as %) after 1 week at 35° C. [2, 15]: 12%
Leakage (as %) after 1 week at 35° C. [2, 16]: 104%
Leakage (as %) after 1 week at 35° C. [2, 17]: 101%
Leakage (as %) after 1 week at 35° C. [2, 18]: 31%

CC(=O)C(C)=CC1C(C)=CCCC1(C)C (centres unmarked) [3-Methyl-4-(2,6,6-trimethyl-2cyclohexen-1-yl)-3-buten-2-one]
Leakage (as %) after 1 week at 35° C. [1, 14]: 6%

CCC(=O)OC1C=CC2C3CCC(C3)C12 (centres unmarked) [3a,4,5,6,7,7a-hexahydro-1H-4,7-methanoinden-1-yl propanoate]
Leakage (as %) after 1 week at 35° C. [1, 19]: 4%

CC(=O)OC1CCCCC1C(C)(C)C (centres unmarked) [(2-tert-butylcyclohexyl) acetate]
Leakage (as %) after 1 week at 35° C. [1, 3]: 4%
Leakage (as %) after 1 week at 35° C. [1, 4]: 5%
Leakage (as %) after 1 week at 35° C. [1, 5]: 91%
Leakage (as %) after 1 week at 35° C. [1, 6]: 92%
Leakage (as %) after 1 week at 35° C. [1, 7]: 2.2%
Leakage (as %) after 1 week at 35° C. [1, 8]: 1.1%
Leakage (as %) after 1 week at 35° C. [1, 9]: 1.3%
Leakage (as %) after 1 week at 35° C. [1, 10]: 10%
Leakage (as %) after 1 week at 35° C. [1, 11]: 11%
Leakage (as %) after 1 week at 35° C. [1, 12]: 20%
Leakage (as %) after 1 week at 35° C. [1, 13]: 11%
Leakage (as %) after 1 week at 35° C. [2, 15]: 1%
Leakage (as %) after 1 week at 35° C. [2, 16]: 105%
Leakage (as %) after 1 week at 35° C. [2, 17]: 101%
Leakage (as %) after 1 week at 35° C. [2, 18]: 33%

CC(=O)OC1CCC(C(C)(C)C)CC1 (centres unmarked) [(4-tert-butylcyclohexyl) acetate]
Leakage (as %) after 1 week at 35° C. [1, 3]: 3%
Leakage (as %) after 1 week at 35° C. [1, 4]: 4%
Leakage (as %) after 1 week at 35° C. [1, 5]: 85%
Leakage (as %) after 1 week at 35° C. [1, 6]: 91%
Leakage (as %) after 1 week at 35° C. [1, 7]: 0.1%
Leakage (as %) after 1 week at 35° C. [1, 8]: 0.1%
Leakage (as %) after 1 week at 35° C. [1, 9]: 0.7%
Leakage (as %) after 1 week at 35° C. [1, 10]: 6%
Leakage (as %) after 1 week at 35° C. [1, 11]: 7%
Leakage (as %) after 1 week at 35° C. [1, 12]: 15%
Leakage (as %) after 1 week at 35° C. [1, 13]: 7%
Leakage (as %) after 1 week at 35° C. [2, 15]: 0%
Leakage (as %) after 1 week at 35° C. [2, 16]: 108%
Leakage (as %) after 1 week at 35° C. [2, 17]: 100%
Leakage (as %) after 1 week at 35° C. [2, 18]: 27%

C=CCOC(=O)CCCCC [Allyl caproate]
Leakage (as %) after 1 week at 35° C. [1, 14]: 9%

CC(=O)/C=C/C1C(C)=CCCC1(C)C (stereo not drawn) [Alpha-ionone]
Leakage (as %) after 1 week at 35° C. ([1]; PRM of Perfume 4 out of Comparative Example 9-1 capsules (per EP3078415A), LFE Composition 1): 58%
Leakage (as %) after 1 week at 35° C. ([1]; PRM of Perfume 4 out of Comparative Example 9-2 capsules (per EP3078415A, additional TEOS), LFE Composition 1): 69%
Leakage (as %) after 1 week at 35° C. ([1]; PRM of Perfume 4 out of Example 9-1 capsules (Sample E), LFE Composition 1): 15%

CC(C)=CCCC(C)CCO (centres unmarked) [Citronellol]
Leakage (as %) after 1 week at 35° C. [1, 14]: 4%

c1ccc(Oc2ccccc2)cc1 [Diphenyl oxide]
Leakage (as %) after 1 week at 35° C. [1, 19]: 4%
